# Measured values published in ChEMBL document CHEMBL4673233, “Discovery of novel (6S/12aS)-heptachpyridone capable of inhibiting thrombosis in vivo” (Bioorg Med Chem Lett, 2020).
# Activity calls are given as the source filed them. The rule behind the calls is not given here.
# Tests used:
# Rattus norvegicus [1] = assay: Antithrombotic activity in rat model of thread-induced arterial thrombosis assessed as reduction artery thrombus at 167 umol/kg, po; type: functional, organism-based; conditions: dose 167.0 µmol/kg
# [2] = Toxicity in inferior vena cava ligation-induced venous thrombosis rat model assessed as bleeding time at 4.87 umol/kg; conditions: in vivo, dose 4.87 µmol/kg
# [3] = Toxicity in inferior vena cava ligation-induced venous thrombosis rat model assessed as clotting time at 4.87 umol/kg; conditions: in vivo, dose 4.87 µmol/kg
# Rattus norvegicus [4] = assay: Antithrombotic activity in rat model of inferior vena cava ligation-induced venous thrombosis assessed as reduction in venous thrombus weight at 4.87 umol/kg, po; type: functional, organism-based; conditions: dose 4.87 µmol/kg
# [5] = Toxicity in inferior vena cava ligation-induced venous thrombosis rat model assessed as international normalized ratio measure of prothrombin time and exogenous coagulation pathway at 4.87 umol/kg; conditions: in vivo, dose 1 µmol/kg
# [6] = Drug metabolism in rat plasma assessed as formation of 6s/12as-heptachpyridone incubated for 1 hr by HPLC-FT-ICR-MS analysis; type: ADME, cell-free
# [7] = Drug metabolism in rat plasma assessed as formation of 6s/12as-bisdimethoxyethylheptachpyridone incubated for 1 hr by HPLC-FT-ICR-MS analysis; type: ADME, cell-free
# Rattus norvegicus [8] = assay: Antithrombotic activity in rat model of thread-induced arterial thrombosis assessed as reduction artery thrombus at 1 umol/kg, po; type: functional, organism-based; conditions: dose 1.0 µmol/kg
# Rattus norvegicus [9] = assay: Antithrombotic activity in rat model of inferior vena cava ligation-induced venous thrombosis assessed as reduction in venous thrombus weight at 1 umol/kg, po; type: functional, organism-based; conditions: dose 1.0 µmol/kg
# [10] = Toxicity in inferior vena cava ligation-induced venous thrombosis rat model assessed as international normalized ratio measure of prothrombin time and exogenous coagulation pathway at 1 umol/kg; conditions: in vivo, dose 1 µmol/kg
# [11] = Toxicity in inferior vena cava ligation-induced venous thrombosis rat model assessed as clotting time at 1 umol/kg; conditions: in vivo, dose 1 µmol/kg
# [12] = Toxicity in inferior vena cava ligation-induced venous thrombosis rat model assessed as bleeding time at 1 umol/kg; conditions: in vivo, dose 1 µmol/kg
compound,measurement,setting,value
CC(=O)Oc1ccccc1C(=O)O,Activity,Rattus norvegicus [1],Active
CC(=O)CC(c1ccccc1)c1c(O)c2ccccc2oc1=O (configuration not stated) [WARFARIN],Activity,[2],Toxic
same,Activity,[3],Toxic
same,Activity,Rattus norvegicus [4],Active
same,Activity,[5],Toxic
COC(C[C@H]1c2[nH]c3ccccc3c2C[C@H]2C(=O)N3[C@@H](Cc4c([nH]c5ccccc45)[C@@H]3CC(OC)OC)C(=O)N21)OC,Drug metabolism,[6],Metabolite_Detected
COC(C[C@@H]1N[C@H](C(=O)O)Cc2c1[nH]c1ccccc21)OC,Drug metabolism,[7],Metabolite_Detected
O=CC[C@H]1c2[nH]c3ccccc3c2C[C@H]2C(=O)N3[C@@H](Cc4c([nH]c5ccccc45)[C@@H]3CC=O)C(=O)N21,Activity,Rattus norvegicus [8],Active
same,Activity,Rattus norvegicus [9],Active
same,Activity,[10],Non-Toxic
same,Activity,[11],Non-Toxic
same,Activity,[12],Non-Toxic
